Measured values from EP0069659A1, “Medicine containing the reaction product of a carboxylic acid and a basic amino acid” (CHANY, Charles, priority 1981, dated 1983).

Assays:
[1] = tested on: virus de l'encéphalomyocardite de la souris (EMC) de la souche Mengo; test: Antiviral protection of mice against the lethal effect of 100 DL50 of EMC virus; settings: for survie lorsqu'on administre aussi de l'interféron: given together with interféron; for survie relevée au moment où la mortalité cesse dans la série d'animaux témoins: propionate d'arginine 0,252 mg/g, hexanoate d'arginine 0,29 mg/g, virus-only controls 5 sur 30
Description: Dans ces expériences, on met en évidence l'activité antivirale contre l'effet léthal de 100 DL50 du virus de l'encéphalomyocardite.
Les animaux de laboratoire utilisés sont des souris du type "Swiss" provenant d'un élevage propre aux Inventeurs.
Le virus employé est celui de l'encéphalomyocar- dite de la souris (EMC) de la souche Mengo cultivée sur des cellules murines L 929.
Le titre des suspensions de virus est estimé par la "méthode des plages" en utilisant toujours des cellules murines L 929. On admet que 5 unités (UFP) formant des plages, correspondent à une dose léthale DL50.
Le virus est inoculé par voie intrapéritonéale.
On réalise également, à titre de comparaison, les expériences suivantes : • - prétraitement des animaux par le butyrate de sodium avant inoculation du virus EMC, • - traitement par le butyrate d'arginine ou de lysine simultanément à l'injection du virus.
Des groupes de souris témoin sont traités par le virus seul et le solvant (milieu isotonique) seul.
et on a administré pour chaque expérience 0,5 ml de ces solutions par souris de 25 g.
L'interféron a été administré à raison de 20.000 à 25.000 unités internationales par souris par voie intrapéritonéale sous un volume de 0,5 ml et l'immunostimulant, à savoir le corynébacterium parvum, souche Mérieux, a été injecté à l'animal par voie intrapéritonéale à raison de 200 µg/0,1 ml/souris.
L'action antivirale a été étudiée dans les mêmes conditions que plus haut.

[2] = tested on: mutant du sarcome de Crocker 180 TG; test: Antitumour activity in mice grafted intraperitoneally with ascitic sarcoma (nine experiments, figures 1 to 9); type: in vivo, souris Swiss
Description: La tumeur utilisée dans les expériences qui suivent est un mutant du sarcome de Crocker 180 TG qui résiste au traitement par les dérivés puriques.
Les animaux d'expériences sont toujours des souris Swiss de l'élevage susmentionné.
On leur inocule le sarcome par voie intrapéritonéale en utilisant une suspension de 10^6 cellules/0,5 ml.. La quantité inoculée est de 0,5 ml.
Les expériences ont été réalisées en utilisant : • - le butyrate d'arginine ou de lysine, • - l'interféron, • - le corynébacterium parvum (ou CP) de souche Mérieux.
Le butyrate d'arginine a été mis en oeuvre sous la forme et en quantité analogue à ce qui est indiqué plus haut pour l'activité antivirale.
Le CP est administré dans les expériences qui suivent sous la forme d'une dose unique appliquée au moment de la greffe ou trois jours après et se présentant sous la forme d'ampoules de 2 ml comprenant 4 mg en poids sec de germes tués par le formol et la chaleur; on injecte 0,1 ml de cette substance à la souris par voie intrapéritonéale.
On a procédé à neuf expériences indépendantes portant chacune sur plusieurs groupes de 15 animaux.
Dans la première de ces expériences (groupe témoin), on a greffé aux animaux la tumeur seule.
Dans les deuxième et troisième expériences, le butyrate d'amino-acide basique a été appliqué par voie intrapéritonéale à raison de 0,5 ml d'une solution 50 fois millimolaire par souris (c'est-à-dire à raison de respectivement 0,28 mg et 0,24 mg par g de souris), trois fois par semaine (à 48 heures d'intervalle) pendant trois semaines.
Dans la quatrième expérience, on a appliqué l'interféron à raison de 20.000 à 50.000 U.I. sous un volume de 0,5 ml administré à l'animal trois fois par semaine (à 48 heures d'intervalle) pendant trois semaines.
Dans la cinquième expérience, on a appliqué le CP en une dose unique de 200 microgrammes/0,1 ml par animal, administrée par voie intrapéritonéale en même temps ou trois jours après la greffe cellulaire.
Dans les sixième à neuvième expériences, on a appliqué, suivant le cas, le butyrate d'amino-acide basique, l'interféron et/ou le CP aux mêmes doses, au même rythme et aux mêmes moments que lorsque ces produits étaient appliqués seuls dans les expériences précédentes.
Ces histogrammes montrent, en fonction du temps (nombre de jours T), le nombre N d'animaux survivants et, parmi ces animaux survivants, le nombre d'animaux portant des tumeurs décelables.
Ainsi, le nombre d'animaux survivants est porté, pour un jour donné, en ordonnée sous la forme d'une colonne figurant le nombre d'animaux et à l'intérieur de laquelle on matérialise par des hachures le nombre d'animaux porteurs de tumeurs.

[3] = 45 animals at start, butyrate de lysine 0,24 mg/g i.p. 3 times a week for 3 weeks

Substance | survie lorsqu'on administre aussi de l'interféron [1] | survie relevée au moment où la mortalité cesse dans la série d'animaux témoins [1] [sur 30] | animaux restants au bout de 44 jours [2, 3] | porteurs de tumeur parmi les animaux restants au bout de 44 jours [2, 3] | animaux porteurs de tumeurs au 10e jour ([2]; butyrate 0,5 ml of 50 mM i.p. 3 times a week for 3 weeks (0,28 or 0,24 mg/g), interféron 20.000 à 50.000 U.I. 3 times a week for 3 weeks, CP single dose 200 microgrammes i.p.) [sur 45] | animaux survivants après 100 jours d'observation ([2]; same doses as E4, group sizes 45 to 75 animals, no control survives beyond day 28) | effet protecteur ([1]; treatment given simultaneously with the injection of the virus)
hexanoate d'arginine | considérablement augmentée | 11 |  |  |  |  | 
propionate d'arginine | considérablement augmentée | 18 |  |  |  |  | 
butyrate de lysine |  |  | 2 | 1 | 32 | un seul | aucun effet protecteur
